What was measured:
[1] = test system: six V600E BRAF melanoma cell lines; assay: Screening of recombinant RTK ligands for ability to confer resistance to BRAFi (PLX4720) or MEKi (PD184352) (Table 4); assay type: cell-based, human; parameters: ability of recombinant RTK ligand to confer resistance / ability of recombinant RTK ligand to confer resistance (screening value): scale not given here
How it was run: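 Resistance to BRAFi (PLX4720) or MEKi (PD184352) was tested in six V600E BRAF melanoma lines given one of 22 recombinant RTK ligands. For a subset of RTKs, activation was checked by high-throughput tyrosine kinase phosphorylation profiling and western blot.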

[2] = test system: pERK/pAKT; assay: High-throughput western analysis of pERK/pAKT re-activation by RTK ligands under BRAFi/MEKi; assay type: cell-based, human; settings: under BRAFi (PLX4720); after 1 hour of cytokine treatment; six V600E BRAF melanoma cell lines
Method: FIG. 23B is a western blot showing the activation of AKT (phosphorylated AKT, S473) after 1 hour and 24 hours after treatment with HGF, IGF-1 (IGF), and Insulin (INS) in the presence of BRAFi (PLX4720, 2 μM). FIG. 23C is a western blot showing the effect of HGF (25 ng/mL) on MAPK and PI3K/AKT pathway activation (pRAF1, pMEK, pERK, pAKT and pMET) in melanoma cell lines after 24 hours of treatment with 2 μM BRAFi (PLX4720) or 2 μM MEKi (PD184352).
To understand why, of all the RTKs tested, only HGF could induce such a unique primary resistance phenotype, a high-throughput western analysis was used to test the ability of all 22 RTK ligands to re-activate pERK/pAKT under BRAFi (PLX4720) treatment in six V600E BRAF melanoma cell lines. […] However, whereas the activation of both ERK and AKT by HGF under PLX4720 treatment was long lasting, the activation of either ERK or AKT by the above cytokines was only transient and thus could not confer resistance to the melanoma cell lines.

insulin: RTK ligand (INSR), cytokine tested
ability of recombinant RTK ligand to confer resistance ([1]; A2058, PD184352 - 1 uM, ligand 156.25 ng/ml): 0.98
ability of recombinant RTK ligand to confer resistance ([1]; A2058, PD184352 - 1 uM, ligand 625 ng/ml): 0.99
ability of recombinant RTK ligand to confer resistance ([1]; A2058, PD184352 - 1 uM, ligand 2500 ng/ml): 1.14
ability of recombinant RTK ligand to confer resistance ([1]; A2058, PD184352 - 1 uM, ligand 10000 ng/ml): 1.03
ability of recombinant RTK ligand to confer resistance ([1]; A2058, PD184352 - 1 uM, ligand 40000 ng/ml): 1.06
ability of recombinant RTK ligand to confer resistance ([1]; A2058, PLX4720 - 2 uM, ligand 156.25 ng/ml): 0.98
ability of recombinant RTK ligand to confer resistance ([1]; A2058, PLX4720 - 2 uM, ligand 625 ng/ml): 0.96
ability of recombinant RTK ligand to confer resistance ([1]; A2058, PLX4720 - 2 uM, ligand 2500 ng/ml): 1.12
ability of recombinant RTK ligand to confer resistance ([1]; A2058, PLX4720 - 2 uM, ligand 10000 ng/ml): 1.02
ability of recombinant RTK ligand to confer resistance ([1]; A2058, PLX4720 - 2 uM, ligand 40000 ng/ml): 1.11
ability of recombinant RTK ligand to confer resistance ([1]; C32, PD184352 - 1 uM, ligand 156.25 ng/ml): 1.09
ability of recombinant RTK ligand to confer resistance ([1]; C32, PD184352 - 1 uM, ligand 625 ng/ml): 1.08
ability of recombinant RTK ligand to confer resistance ([1]; C32, PD184352 - 1 uM, ligand 2500 ng/ml): 1.20
ability of recombinant RTK ligand to confer resistance ([1]; C32, PD184352 - 1 uM, ligand 10000 ng/ml): 1.08
ability of recombinant RTK ligand to confer resistance ([1]; C32, PD184352 - 1 uM, ligand 40000 ng/ml): 1.04
ability of recombinant RTK ligand to confer resistance ([1]; C32, PLX4720 - 2 uM, ligand 156.25 ng/ml): 1.14
ability of recombinant RTK ligand to confer resistance ([1]; C32, PLX4720 - 2 uM, ligand 625 ng/ml): 1.05
ability of recombinant RTK ligand to confer resistance ([1]; C32, PLX4720 - 2 uM, ligand 2500 ng/ml): 1.20
ability of recombinant RTK ligand to confer resistance ([1]; C32, PLX4720 - 2 uM, ligand 10000 ng/ml): 1.02
ability of recombinant RTK ligand to confer resistance ([1]; C32, PLX4720 - 2 uM, ligand 40000 ng/ml): 1.04
ability of recombinant RTK ligand to confer resistance ([1]; Colo 829, PD184352 - 1 uM, ligand 156.25 ng/ml): 0.91
ability of recombinant RTK ligand to confer resistance ([1]; Colo 829, PD184352 - 1 uM, ligand 625 ng/ml): 0.98
ability of recombinant RTK ligand to confer resistance ([1]; Colo 829, PD184352 - 1 uM, ligand 2500 ng/ml): 0.98
ability of recombinant RTK ligand to confer resistance ([1]; Colo 829, PD184352 - 1 uM, ligand 10000 ng/ml): 1.02
ability of recombinant RTK ligand to confer resistance ([1]; Colo 829, PD184352 - 1 uM, ligand 40000 ng/ml): 1.02
ability of recombinant RTK ligand to confer resistance ([1]; Colo 829, PLX4720 - 2 uM, ligand 156.25 ng/ml): 0.91
ability of recombinant RTK ligand to confer resistance ([1]; Colo 829, PLX4720 - 2 uM, ligand 625 ng/ml): 0.93
ability of recombinant RTK ligand to confer resistance ([1]; Colo 829, PLX4720 - 2 uM, ligand 2500 ng/ml): 0.97
ability of recombinant RTK ligand to confer resistance ([1]; Colo 829, PLX4720 - 2 uM, ligand 10000 ng/ml): 1.01
ability of recombinant RTK ligand to confer resistance ([1]; Colo 829, PLX4720 - 2 uM, ligand 40000 ng/ml): 1.00
ability of recombinant RTK ligand to confer resistance ([1]; G-361, PD184352 - 1 uM, ligand 156.25 ng/ml): 0.98
ability of recombinant RTK ligand to confer resistance ([1]; G-361, PD184352 - 1 uM, ligand 625 ng/ml): 0.91
ability of recombinant RTK ligand to confer resistance ([1]; G-361, PD184352 - 1 uM, ligand 2500 ng/ml): 1.01
ability of recombinant RTK ligand to confer resistance ([1]; G-361, PD184352 - 1 uM, ligand 10000 ng/ml): 0.98
ability of recombinant RTK ligand to confer resistance ([1]; G-361, PD184352 - 1 uM, ligand 40000 ng/ml): 0.97
ability of recombinant RTK ligand to confer resistance ([1]; G-361, PLX4720 - 2 uM, ligand 156.25 ng/ml): 0.92
ability of recombinant RTK ligand to confer resistance ([1]; G-361, PLX4720 - 2 uM, ligand 625 ng/ml): 0.88
ability of recombinant RTK ligand to confer resistance ([1]; G-361, PLX4720 - 2 uM, ligand 2500 ng/ml): 0.98
ability of recombinant RTK ligand to confer resistance ([1]; G-361, PLX4720 - 2 uM, ligand 10000 ng/ml): 0.96
ability of recombinant RTK ligand to confer resistance ([1]; G-361, PLX4720 - 2 uM, ligand 40000 ng/ml): 0.99
ability of recombinant RTK ligand to confer resistance ([1]; SK-MEL-5, PD184352 - 1 uM, ligand 156.25 ng/ml): 1.20
ability of recombinant RTK ligand to confer resistance ([1]; SK-MEL-5, PD184352 - 1 uM, ligand 625 ng/ml): 1.24
ability of recombinant RTK ligand to confer resistance ([1]; SK-MEL-5, PD184352 - 1 uM, ligand 2500 ng/ml): 1.30
ability of recombinant RTK ligand to confer resistance ([1]; SK-MEL-5, PD184352 - 1 uM, ligand 10000 ng/ml): 1.28
ability of recombinant RTK ligand to confer resistance ([1]; SK-MEL-5, PD184352 - 1 uM, ligand 40000 ng/ml): 1.66
ability of recombinant RTK ligand to confer resistance ([1]; SK-MEL-5, PLX4720 - 2 uM, ligand 156.25 ng/ml): 1.10
ability of recombinant RTK ligand to confer resistance ([1]; SK-MEL-5, PLX4720 - 2 uM, ligand 625 ng/ml): 1.18
ability of recombinant RTK ligand to confer resistance ([1]; SK-MEL-5, PLX4720 - 2 uM, ligand 2500 ng/ml): 1.27
ability of recombinant RTK ligand to confer resistance ([1]; SK-MEL-5, PLX4720 - 2 uM, ligand 10000 ng/ml): 1.26
ability of recombinant RTK ligand to confer resistance ([1]; SK-MEL-5, PLX4720 - 2 uM, ligand 40000 ng/ml): 1.43
ability of recombinant RTK ligand to confer resistance ([1]; SK-MEL-28, PD184352 - 1 uM, ligand 156.25 ng/ml): 1.01
ability of recombinant RTK ligand to confer resistance ([1]; SK-MEL-28, PD184352 - 1 uM, ligand 625 ng/ml): 0.97
ability of recombinant RTK ligand to confer resistance ([1]; SK-MEL-28, PD184352 - 1 uM, ligand 2500 ng/ml): 1.06
ability of recombinant RTK ligand to confer resistance ([1]; SK-MEL-28, PD184352 - 1 uM, ligand 10000 ng/ml): 1.13
ability of recombinant RTK ligand to confer resistance ([1]; SK-MEL-28, PD184352 - 1 uM, ligand 40000 ng/ml): 1.11
ability of recombinant RTK ligand to confer resistance ([1]; SK-MEL-28, PLX4720 - 2 uM, ligand 156.25 ng/ml): 1.02
ability of recombinant RTK ligand to confer resistance ([1]; SK-MEL-28, PLX4720 - 2 uM, ligand 625 ng/ml): 0.95
ability of recombinant RTK ligand to confer resistance ([1]; SK-MEL-28, PLX4720 - 2 uM, ligand 2500 ng/ml): 0.99
ability of recombinant RTK ligand to confer resistance ([1]; SK-MEL-28, PLX4720 - 2 uM, ligand 10000 ng/ml): 1.05
ability of recombinant RTK ligand to confer resistance ([1]; SK-MEL-28, PLX4720 - 2 uM, ligand 40000 ng/ml): 1.05
re-activation of pERK/pAKT [2]: only reactivate AKT

Source: US20140348819A1, “Methods of Treating Cancer” (Dana-Farber Cancer Institute, Inc., priority 2011, published 2014)
